Laboratory results from article PMC6009868, “Synthesis and bioactivity of several new hetaryl sulfonamides” (Journal of Enzyme Inhibition and Medicinal Chemistry, 2017).

Assay: Metal chelating activity (Fe2+-ferrozine, 562 nm)
Conditions: absorbance at 562 nm
Description: Metal chelating capacity of hetaryl sulfonamides 1–12 was determined according to Dinis et al.[60]. […] Simultaneously, to a mixture of FeCl2 (0.1 mL, 0.6 mM), three concentrations (10–30 µg/mL) of hetaryl sulfonamides 1–12 in ethanol (0.4 mL) were added. The activities were initiated by the addition of ferrozine molecules (0.1 mL, 5 mM). Additionally, the reaction was mixed and maintained in a dark room for 10 min.

| Compound | Fe^2+ chelating (IC50) |
| --- | --- |
| Cc1c(C)c2c(c(C)c1O)CC[C@@](C)(CCC[C@H](C)CCC[C@H](C)CCCC(C)C)O2 [α-Tocopherol] | 40.76 µg/mL |
| O=C(O)CN(CCN(CC(=O)O)CC(=O)O)CC(=O)O [EDTA] | 9.36 µg/mL |
| COc1ccc(O)c(C(C)(C)C)c1 [BHA] | 46.20 µg/mL |
| Cc1c(C)c2c(c(C)c1O)CCC(C)(C(=O)O)O2 (centres unmarked) [Trolox] | 31.13 µg/mL |
| Cc1cc(C(C)(C)C)c(O)c(C(C)(C)C)c1 [BHT] | 76.96 µg/mL |
